Results: patent US10414891B2, “Polyurethane curatives” (The Shepherd Chemical Company, priority 2015, dated 2019)

Columns and labels:
[1] = Accelerated aging of curatives in polyol mix with water and temperature; type: physicochemical; settings: curative 2.0 parts
Description: [Note: polyols supplied to Shepherd as their 4-component polyol systems by Huntsman.] BiCAT 8108 is bismuth neodecanoate, 20 wt % bismuth.

[2] = Moisture stability of curative in polyol side of two-part TDI spray-foam system; type: physicochemical
Experimental: BiCAT 8842 was used in a two-part polyurethane system (TDI) for spray-foam applications. The BiCAT 8842 was added at 0.125 wt % to the polyol side (B-part). In addition, the polyol side contained 2.5 wt % water. […] The same dosage of stannous octoate curative was added to the TDI-tin-based control formulation.

[3] = DAY 1, DI water 2.5 parts, oven 130° F.
[4] = DAY 2, DI water 2.5 parts, oven 130° F.
[5] = DAY 3, DI water 2.5 parts, oven 130° F.
[6] = DAY 4, DI water 2.5 parts, oven 160° F.
[7] = DAY 5, DI water 4.0 parts, oven 160° F.
[8] = DAY 6, DI water 4.0 parts, oven 160° F.

Substance | Stability [1, 3] | Stability [1, 4] | Stability [1, 5] | Stability [1, 6] | Stability [1, 7] | Stability [1, 8] | time until formulation began to turn white (bismuth hydrolysis to the hydroxide) ([2]; same use level, polyol side containing 2.5 wt % water) [min] | stability in the presence of moisture ([2]; 0.125 wt % in polyol side (B-part) containing 2.5 wt % water)
bismuth neodecanoate [BiCAT 8108, reference compound] | transparent | transparent | transparent | transparent | very sl. hazy | opaque; ppt formation | – | –
bismuth neodecanoate [reference compound] | – | – | – | – | – | – | ~14 | –
bismuth, 2,2′,2″,2′″-(1,2-ethanediyldinitrilo)tetrakis[ethanol] neodecanoate complexes [Curative 8842] | transparent | transparent | transparent | transparent | transparent | transparent | – | remained stable for many weeks
bismuth, 1,1′,1″,1′″-(1,2-ethanediyldinitrilo)tetrakis[2-propanol] neodecanoate complexes [Curative 8840] | transparent | transparent | transparent | transparent | transparent | transparent | – | –
